In this test the target is T1, Human CaV2.2 channels (Homo sapiens, UniProt Q00975).
T1 construct: expressed in transfected cells
T1 sequence (Q00975 whole entry): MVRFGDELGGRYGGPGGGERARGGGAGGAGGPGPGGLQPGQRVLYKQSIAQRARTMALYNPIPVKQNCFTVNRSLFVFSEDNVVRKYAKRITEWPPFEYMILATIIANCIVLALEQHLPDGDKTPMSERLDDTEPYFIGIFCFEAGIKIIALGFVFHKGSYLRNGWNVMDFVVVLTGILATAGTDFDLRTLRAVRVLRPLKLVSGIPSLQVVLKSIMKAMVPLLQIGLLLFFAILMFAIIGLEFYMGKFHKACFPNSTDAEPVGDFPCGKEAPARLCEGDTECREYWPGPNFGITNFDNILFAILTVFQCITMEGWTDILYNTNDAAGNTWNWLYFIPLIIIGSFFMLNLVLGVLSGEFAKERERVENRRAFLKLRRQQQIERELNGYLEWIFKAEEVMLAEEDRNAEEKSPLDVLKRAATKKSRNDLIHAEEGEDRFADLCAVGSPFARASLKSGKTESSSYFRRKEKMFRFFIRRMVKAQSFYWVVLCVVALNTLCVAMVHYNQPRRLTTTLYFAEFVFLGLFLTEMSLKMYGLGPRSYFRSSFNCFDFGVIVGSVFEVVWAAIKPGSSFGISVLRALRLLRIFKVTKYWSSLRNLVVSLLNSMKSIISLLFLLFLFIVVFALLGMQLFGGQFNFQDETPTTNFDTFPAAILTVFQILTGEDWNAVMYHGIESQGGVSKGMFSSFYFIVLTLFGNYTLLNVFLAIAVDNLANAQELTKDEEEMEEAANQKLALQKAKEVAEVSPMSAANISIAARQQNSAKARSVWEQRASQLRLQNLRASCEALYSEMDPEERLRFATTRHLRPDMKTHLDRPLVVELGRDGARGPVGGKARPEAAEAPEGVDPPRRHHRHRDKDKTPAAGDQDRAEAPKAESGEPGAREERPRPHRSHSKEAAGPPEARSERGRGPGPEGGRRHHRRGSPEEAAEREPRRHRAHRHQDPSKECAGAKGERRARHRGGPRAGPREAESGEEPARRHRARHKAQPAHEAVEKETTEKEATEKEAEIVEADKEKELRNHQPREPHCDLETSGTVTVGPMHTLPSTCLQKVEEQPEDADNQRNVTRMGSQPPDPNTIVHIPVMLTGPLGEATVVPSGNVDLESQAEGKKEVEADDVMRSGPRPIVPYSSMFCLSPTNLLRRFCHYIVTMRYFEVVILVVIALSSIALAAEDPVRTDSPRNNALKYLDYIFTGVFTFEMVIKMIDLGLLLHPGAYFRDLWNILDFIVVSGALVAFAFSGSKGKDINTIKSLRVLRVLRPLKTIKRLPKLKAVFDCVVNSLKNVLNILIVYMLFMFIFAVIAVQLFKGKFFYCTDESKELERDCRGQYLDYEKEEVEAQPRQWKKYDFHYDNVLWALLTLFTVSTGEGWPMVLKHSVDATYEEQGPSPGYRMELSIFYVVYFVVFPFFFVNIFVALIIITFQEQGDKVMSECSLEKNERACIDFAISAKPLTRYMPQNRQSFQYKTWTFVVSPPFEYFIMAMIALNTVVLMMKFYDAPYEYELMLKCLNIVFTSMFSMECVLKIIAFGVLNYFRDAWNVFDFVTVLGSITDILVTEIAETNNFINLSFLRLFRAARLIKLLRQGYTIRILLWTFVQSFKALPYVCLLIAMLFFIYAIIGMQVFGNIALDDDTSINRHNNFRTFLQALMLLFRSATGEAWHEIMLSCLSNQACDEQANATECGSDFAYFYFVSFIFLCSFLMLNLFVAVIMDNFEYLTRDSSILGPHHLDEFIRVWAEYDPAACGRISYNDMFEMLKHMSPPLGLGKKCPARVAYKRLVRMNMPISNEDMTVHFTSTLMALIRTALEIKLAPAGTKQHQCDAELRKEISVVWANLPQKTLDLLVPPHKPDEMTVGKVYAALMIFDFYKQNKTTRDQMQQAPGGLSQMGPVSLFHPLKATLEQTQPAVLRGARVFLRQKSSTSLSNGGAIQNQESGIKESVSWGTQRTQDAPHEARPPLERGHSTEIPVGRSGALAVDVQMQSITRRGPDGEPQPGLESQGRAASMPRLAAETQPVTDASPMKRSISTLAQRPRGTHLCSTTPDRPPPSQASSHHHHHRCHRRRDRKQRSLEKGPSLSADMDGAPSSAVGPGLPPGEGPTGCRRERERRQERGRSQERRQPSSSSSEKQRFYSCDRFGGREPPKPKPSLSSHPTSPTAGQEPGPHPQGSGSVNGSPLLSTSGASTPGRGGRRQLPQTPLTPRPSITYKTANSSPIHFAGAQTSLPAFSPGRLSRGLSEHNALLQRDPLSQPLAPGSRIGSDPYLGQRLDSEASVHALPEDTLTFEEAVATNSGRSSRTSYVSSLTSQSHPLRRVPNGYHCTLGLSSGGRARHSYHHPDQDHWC
T1 sequence (P54289 25-1103, further chain): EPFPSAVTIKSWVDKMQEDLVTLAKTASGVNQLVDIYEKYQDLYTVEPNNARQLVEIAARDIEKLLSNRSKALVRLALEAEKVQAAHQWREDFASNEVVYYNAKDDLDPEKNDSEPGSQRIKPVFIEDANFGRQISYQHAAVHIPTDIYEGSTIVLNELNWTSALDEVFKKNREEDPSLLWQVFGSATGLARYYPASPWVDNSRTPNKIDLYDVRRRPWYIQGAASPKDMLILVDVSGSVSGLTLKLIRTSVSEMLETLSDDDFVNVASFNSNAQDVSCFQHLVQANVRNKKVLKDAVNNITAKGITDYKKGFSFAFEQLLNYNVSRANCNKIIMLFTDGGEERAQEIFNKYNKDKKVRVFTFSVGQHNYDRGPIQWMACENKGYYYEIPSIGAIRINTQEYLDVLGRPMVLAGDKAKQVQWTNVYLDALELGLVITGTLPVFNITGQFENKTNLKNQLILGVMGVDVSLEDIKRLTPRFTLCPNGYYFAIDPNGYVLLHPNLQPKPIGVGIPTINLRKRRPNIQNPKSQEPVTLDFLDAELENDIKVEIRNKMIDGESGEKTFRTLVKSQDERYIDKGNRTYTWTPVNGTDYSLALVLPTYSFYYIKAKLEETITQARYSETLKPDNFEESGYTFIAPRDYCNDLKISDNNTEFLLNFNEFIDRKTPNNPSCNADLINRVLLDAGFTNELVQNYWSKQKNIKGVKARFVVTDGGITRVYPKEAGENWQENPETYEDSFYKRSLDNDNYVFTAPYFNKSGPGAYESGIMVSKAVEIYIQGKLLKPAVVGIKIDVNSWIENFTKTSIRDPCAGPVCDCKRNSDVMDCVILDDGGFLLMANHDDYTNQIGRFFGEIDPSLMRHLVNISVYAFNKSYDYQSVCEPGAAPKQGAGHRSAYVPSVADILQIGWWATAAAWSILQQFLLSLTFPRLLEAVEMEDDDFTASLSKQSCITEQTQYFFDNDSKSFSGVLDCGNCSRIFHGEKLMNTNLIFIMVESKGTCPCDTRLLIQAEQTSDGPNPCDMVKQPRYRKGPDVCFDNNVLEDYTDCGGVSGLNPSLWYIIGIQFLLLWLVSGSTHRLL
T1 sequence (P54284 whole entry, further chain): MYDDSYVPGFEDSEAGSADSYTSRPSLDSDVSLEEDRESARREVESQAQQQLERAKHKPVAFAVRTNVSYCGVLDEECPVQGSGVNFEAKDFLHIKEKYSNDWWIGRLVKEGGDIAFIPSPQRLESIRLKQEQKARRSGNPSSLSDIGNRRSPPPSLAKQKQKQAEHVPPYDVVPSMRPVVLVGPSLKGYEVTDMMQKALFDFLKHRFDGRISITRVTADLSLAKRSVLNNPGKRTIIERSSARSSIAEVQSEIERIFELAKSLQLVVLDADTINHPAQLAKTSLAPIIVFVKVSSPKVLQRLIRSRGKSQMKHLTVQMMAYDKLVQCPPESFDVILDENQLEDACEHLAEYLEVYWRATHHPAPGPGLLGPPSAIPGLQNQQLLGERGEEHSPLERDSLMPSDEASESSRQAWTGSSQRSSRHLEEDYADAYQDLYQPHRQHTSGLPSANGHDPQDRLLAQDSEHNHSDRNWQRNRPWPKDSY
Put plainly: Fluorescent assay for CaV2.2 channels using potassium depolarization to induce channel opening (FLIPR, Fluo-4). It counts as cell-based. Particulars: 3 μM test compound, 30 mM KCl, HEK293 cells stably expressing human CaV2.2; read-out: %-Inhib (CaV2.2) @3 μM @30 mM KCl. A digest of the protocol:
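HEK293 cells stably co-expressing CaV2.2 with α2δ and β subunits plus Kir2.3 were Fluo-4 loaded, then preincubated 15 min at 25 °C with compound in 30 mM KCl buffer, pH 7.4. Depolarization was by adding buffer containing 210 mM KCl. Inhibition was taken from baseline-normalized peak fluorescence amplitude (ex 480/em 535 nm).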
Turning to `Cc1c(-c2ccc(Cl)cc2F)c(C(=O)N(C)CC2CCCO2)n(Cc2ccccc2)c1C(F)(F)F` (centres unmarked) [SC-165, 1-Benzyl-3-(4-chloro-2-fluoro-phenyl)-N,4-dimethyl-N-(tetrahydro-furan-2-yl-methyl)-5-(trifluoromethyl)-1H-pyrrole-2-carboxylic acid amide], the inhibition at 3 µM is greater than 95%.

For the molecule `Cc1c(-c2ccc(Cl)cc2)c(C(=O)N(C)C2CC2)n(Cc2ccccc2)c1C(F)(F)F` [SC-34, 1-Benzyl-3-(4-chlorophenyl)-N-cyclopropyl-N,4-dimethyl-5-(trifluoromethyl)-1H-pyrrole-2-carboxylic acid amide], the inhibition at 3 µM was greater than 95%.

For the molecule `Cc1c(-c2ccc(Cl)cc2)c(C(=O)N(C)CC(C)(C)CN2CCOCC2)n(Cc2ccccc2)c1C(F)(F)F` [SC-118, 1-Benzyl-3-(4-chlorophenyl)-N-(2,2-dimethyl-3-morpholin-4-yl-propyl)-N,4-dimethyl-5-(trifluoromethyl)-1H-pyrrole-2-carboxylic acid amide], the inhibition at 3 µM was greater than 95%.

Turning to `Cc1c(-c2ccc(F)cc2)c(C(=O)N(C)C(C)(C)CO)n(Cc2ccccc2)c1C(F)(F)F` [SC-222, 1-Benzyl-3-(4-fluorophenyl)-N-(2-hydroxy-1,1-dimethyl-ethyl)-N,4-dimethyl-5-(trifluoromethyl)-1H-pyrrole-2-carboxylic acid amide], the inhibition at 3 µM is greater than 95%.

As to `CC(C)NC(=O)c1c(-c2ccc(Cl)cc2)cc(C(F)(F)F)n1Cc1ccccc1` [SC-214, 1-Benzyl-3-(4-chlorophenyl)-N-isopropyl-5-(trifluoromethyl)-1H-pyrrole-2-carboxylic acid amide], the inhibition at 3 µM was in the range of 75 to 95%.

Regarding `Cc1c(-c2ccc(C(F)(F)F)cc2)c(C(=O)N(C)CCS(C)(=O)=O)n(Cc2ccccc2)c1C(F)(F)F` [SC-228, 1-Benzyl-N,4-dimethyl-N-(2-methylsulfonyl-ethyl)-5-(trifluoromethyl)-3-[4-(trifluoromethyl)-phenyl]-1H-pyrrole-2-carboxylic acid amide], the inhibition at 3 µM fell in the range of 75 to 95%.

On to `Cc1c(-c2ccc(Cl)cc2F)c(C(=O)N[C@H](C)C(C)(C)C)n(Cc2ccccc2)c1C(F)(F)F` [SC-158, 1-Benzyl-3-(4-chloro-2-fluoro-phenyl)-4-methyl-5-(trifluoromethyl)-N-[(1R)-1,2,2-trimethyl-propyl]-1H-pyrrole-2-carboxylic acid amide], for which the inhibition at 3 µM fell in the range of 75 to 95%.

Regarding `Cc1cnc(CN(C)C(=O)c2c(-c3ccc(Cl)cc3)c(C)c(C(F)(F)F)n2Cc2ccccc2)cn1` [SC-151, 1-Benzyl-3-(4-chlorophenyl)-N,4-dimethyl-N-[(5-methyl-pyrazin-2-yl)-methyl]-5-(trifluoromethyl)-1H-pyrrole-2-carboxylic acid amide], the inhibition at 3 µM is greater than 95%.

`CC1(C)CN(C(=O)c2c(-c3ccc(Cl)cc3)cc(C(F)(F)F)n2Cc2ccccc2)CCO1` [SC-75, [1-Benzyl-3-(4-chlorophenyl)-5-(trifluoromethyl)-1H-pyrrol-2-yl]-(2,2-dimethyl-morpholin-4-yl)-methanone]: the inhibition at 3 µM is 75 to 95%.

`Cc1c(-c2ccc(Cl)cc2)c(C(=O)NC2(CO)CC2)n(Cc2ccccc2)c1C(F)(F)F` [SC-16, 1-Benzyl-3-(4-chlorophenyl)-N-[1-(hydroxymethyl)-cyclopropyl]-4-methyl-5-(trifluoromethyl)-1H-pyrrole-2-carboxylic acid amide]: the inhibition at 3 µM was in the range of 75 to 95%.

With `CN(CCC(C)(C)C)C(=O)c1c(-c2ccc(Cl)cc2)cc(C(F)(F)F)n1Cc1ccccc1` [SC-84, 1-Benzyl-3-(4-chlorophenyl)-N-(3,3-dimethyl-butyl)-N-methyl-5-(trifluoromethyl)-1H-pyrrole-2-carboxylic acid amide], the inhibition at 3 µM lay within 40 to 75%.

Turning to `Cc1c(-c2ccc(Cl)cc2)c(C(=O)N(C)Cc2nccn2C)n(Cc2ccccc2)c1C(F)(F)F` [SC-148, 1-Benzyl-3-(4-chlorophenyl)-N,4-dimethyl-N-[(1-methyl-1H-imidazol-2-yl)-methyl]-5-(trifluoromethyl)-1H-pyrrole-2-carboxylic acid amide], the inhibition at 3 µM is greater than 95%.

For `Cc1c(-c2ccc(Cl)cc2F)c(C(=O)N(C)CC(C)(C)S(C)(=O)=O)n(Cc2ccccc2)c1C(F)(F)F` [SC-168, 1-Benzyl-3-(4-chloro-2-fluoro-phenyl)-N,4-dimethyl-N-(2-methyl-2-methylsulfonyl-propyl)-5-(trifluoromethyl)-1H-pyrrole-2-carboxylic acid amide], the inhibition at 3 µM is greater than 95%.

Consider `Cc1c(-c2ccc(C(F)(F)F)cc2)c(C(=O)N(C)CC(C)(C)C)n(Cc2ccccc2)c1C(F)(F)F` [SC-233, 1-Benzyl-N-(2,2-dimethyl-propyl)-N,4-dimethyl-5-(trifluoromethyl)-3-[4-(trifluoromethyl)-phenyl]-1H-pyrrole-2-carboxylic acid amide], for which the inhibition at 3 µM is 30 to 40%.

`Cc1c(-c2ccc(Cl)cc2)c(C(=O)NC(C)C)n(Cc2ccccc2)c1C(F)(F)F` [SC-150, 1-Benzyl-3-(4-chlorophenyl)-N-isopropyl-4-methyl-5-(trifluoromethyl)-1H-pyrrole-2-carboxylic acid amide]: the inhibition at 3 µM was 75 to 95%.

Take `CC(CS(C)(=O)=O)N(C)C(=O)c1c(-c2ccc(Cl)cc2)cc(C(F)(F)F)n1Cc1ccccc1` (centres unmarked) [SC-198, 1-Benzyl-3-(4-chlorophenyl)-N-methyl-N-(1-methyl-2-methylsulfonyl-ethyl)-5-(trifluoromethyl)-1H-pyrrole-2-carboxylic acid amide]: the inhibition at 3 µM was greater than 95%.

With `CCN(CCS(C)(=O)=O)C(=O)c1c(-c2ccc(Cl)cc2)cc(C(F)(F)F)n1Cc1ccccc1` [SC-190, 1-Benzyl-3-(4-chlorophenyl)-N-ethyl-N-(2-methylsulfonyl-ethyl)-5-(trifluoromethyl)-1H-pyrrole-2-carboxylic acid amide], the inhibition at 3 µM is greater than 95%.

As to `Cc1c(-c2ccc(Cl)cc2)c(C(=O)N2CCOCC2)n(CCOc2ccc(F)cc2)c1C(F)(F)F` [SC-51, [3-(4-Chlorophenyl)-1-[2-(4-fluoro-phenoxy)-ethyl]-4-methyl-5-(trifluoromethyl)-1H-pyrrol-2-yl]-morpholin-4-yl-methanone], the inhibition at 3 µM was greater than 95%.

Take `Cc1c(-c2ccc(Cl)cc2)c(C(=O)N(C)CCO)n(Cc2ccccc2)c1C(F)(F)F` [SC-24, 1-Benzyl-3-(4-chlorophenyl)-N-(2-hydroxy-ethyl)-N,4-dimethyl-5-(trifluoromethyl)-1H-pyrrole-2-carboxylic acid amide]: the inhibition at 3 µM was greater than 95%.

For the molecule `CN(CC(C)(C)C)C(=O)c1c(-c2ccc(Cl)cc2)cc(C(F)(F)F)n1Cc1cccc(Cl)c1` [SC-71, 3-(4-Chlorophenyl)-1-[(3-chlorophenyl)-methyl]-N-(2,2-dimethyl-propyl)-N-methyl-5-(trifluoromethyl)-1H-pyrrole-2-carboxylic acid amide], the inhibition at 3 µM was 75 to 95%.

For the molecule `Cc1c(-c2ccc(Cl)cc2)c(C(=O)N(C)C(C)C)n(Cc2ccccc2)c1C(F)(F)F` [SC-149, 1-Benzyl-3-(4-chlorophenyl)-N-isopropyl-N,4-dimethyl-5-(trifluoromethyl)-1H-pyrrole-2-carboxylic acid amide], the inhibition at 3 µM was greater than 95%.

Take `Cc1c(-c2ccc(Cl)cc2)c(C(=O)N2CCNC(=O)C2)n(Cc2ccccc2)c1C(F)(F)F` [SC-08, 4-[1-Benzyl-3-(4-chlorophenyl)-4-methyl-5-(trifluoromethyl)-1H-pyrrole-2-carbonyl]-piperazin-2-one]: the inhibition at 3 µM was in the range of 75 to 95%.

Consider `Cc1c(-c2ccc(Cl)cc2)c(C(=O)N(C)C2CCS(=O)(=O)CC2)n(Cc2ccccc2)c1C(F)(F)F` [SC-131, 1-Benzyl-3-(4-chlorophenyl)-N-(1,1-dioxo-thian-4-yl)-N,4-dimethyl-5-(trifluoromethyl)-1H-pyrrole-2-carboxylic acid amide], for which the inhibition at 3 µM is greater than 95%.

With `CS(=O)(=O)CCNC(=O)c1c(-c2ccc(Cl)cc2)cc(C(F)(F)F)n1Cc1ccccc1` [SC-191, 1-Benzyl-3-(4-chlorophenyl)-N-(2-methylsulfonyl-ethyl)-5-(trifluoromethyl)-1H-pyrrole-2-carboxylic acid amide], the inhibition at 3 µM was in the range of 75 to 95%.

In the case of `CN(C(=O)c1c(-c2ccc(Cl)cc2)cc(C(F)(F)F)n1Cc1ccccc1)C(C)(C)C` [SC-77, 1-Benzyl-N-tert-butyl-3-(4-chlorophenyl)-N-methyl-5-(trifluoromethyl)-1H-pyrrole-2-carboxylic acid amide], the inhibition at 3 µM is 75 to 95%.

On to `Cc1c(-c2ccc(C(F)(F)F)cc2)c(C(=O)N2CCOC(C)(C)C2)n(Cc2ccccc2)c1C(F)(F)F` [SC-234, [1-Benzyl-4-methyl-5-(trifluoromethyl)-3-[4-(trifluoromethyl)-phenyl]-1H-pyrrol-2-yl]-(2,2-dimethyl-morpholin-4-yl)-methanone], for which the inhibition at 3 µM lay within 75 to 95%.

For the molecule `Cc1c(-c2ccc(OC(F)(F)F)cc2)c(C(=O)N(C)C2CC2)n(Cc2ccccc2)c1C(F)(F)F` [SC-238, 1-Benzyl-N-cyclopropyl-N,4-dimethyl-5-(trifluoromethyl)-3-[4-(trifluoromethyloxy)-phenyl]-1H-pyrrole-2-carboxylic acid amide], the inhibition at 3 µM is 40 to 75%.

On to `Cc1c(-c2ccc(C(F)(F)F)cc2)c(C(=O)N(C)C2CCOCC2)n(Cc2ccccc2)c1C(F)(F)F` [SC-229, 1-Benzyl-N,4-dimethyl-N-tetrahydro-pyran-4-yl-5-(trifluoromethyl)-3-[4-(trifluoromethyl)-phenyl]-1H-pyrrole-2-carboxylic acid amide], for which the inhibition at 3 µM is 75 to 95%.

With `Cc1c(-c2ccc(F)cc2)c(C(=O)N(C)CC2CCOC2)n(Cc2ccccc2)c1C(F)(F)F` (centres unmarked) [SC-226, 1-Benzyl-3-(4-fluorophenyl)-N,4-dimethyl-N-(tetrahydro-furan-3-yl-methyl)-5-(trifluoromethyl)-1H-pyrrole-2-carboxylic acid amide], the inhibition at 3 µM was greater than 95%.

The values above are taken from patent US9302988B2, “Fluoromethyl-substituted pyrrole carboxamides” (GRÜNENTHAL GMBH, priority 2012, dated 2016).
